Source: paper PMC6843832, “Synthesis of Novel Analogs of Thieno[2,3-d] Pyrimidin-4(3H)-ones as Selective Inhibitors of Cancer Cell Growth” (Biomolecules, 2019)
Read-outs that look alike come from different tables or passages of the source.

Experiments:
MTT assay, HL-7702 cells = type: cell-based, human; conditions: HL-7702 cells (normal liver cells); normal human liver cells, MTT, 72 h; read-out: Cytotoxic activity (IC50) HL-7702
Description: (§1) Primary human liver HL-7702 cells were purchased from SIBS (Shanghai Institutes for Biological Sciences, Shanghai, China) while MCF-7, A549, PC-9 and PC-3 cells were from ATCC (American Type Culture Collection, Rockville, MD, USA). HL-7702, PC-9 and A549 cells were incubated with Roswell Park Memorial Institute (RPMI) 1640 medium and MCF-7 were cultured in Dulbecco’s Modified Eagle’s Medium (DMEM) supplemented with 10% heat-inactivated fetal bovine serum (FBS) and 1% antibiotics (penicillin and streptomycin). PC-3, a human prostate adenocarcinoma cell, was maintained in Ham’s F-12 Medium supplemented with 10% FBS, 1% penicillin/streptomycin and 1% glutamine. All cells were cultured at 37 °C in an incubator containing 5% CO2. The cell viability was determined by using the MTT (methyl thiazolyl tetrazolium bromide) assay. Briefly, cells were seeded in 96-well plates (4 × 10^3 cells/well) overnight and exposed to the synthesized compounds with various concentrations. Camptothecin and dimethyl sulfoxide (DMSO) served as a positive control and a negative control respectively. After 72 h of incubation, 20 μL of MTT (5 mg/mL in phosphate buffer saline (PBS)) were added into each well. Dissolved yellowish MTT is converted to an insoluble purple formazan during incubation (4 h). In order to dissolve the formazan crystals, 100 μL of lysis solution (10% SDS (sodium dodecyl sulfate)-5% isobutyl alcohol-0.01M HCl) was added into per well. Finally, the optical density (OD) of solution in the plates was measured using a microplate reader at 570 nm after dissolving overnight. Cell viability was calculated by using the following formula: […].

PC-3 cells = experiment: MTT assay, PC-3 cells; type: cell-based; conditions: human prostate cancer cells, 72 h, read-out: Cytotoxic activity (IC50) PC-3
Description: as §1

PC-9 cells = experiment: MTT assay, PC-9 cells; type: cell-based; conditions: human non-small cell lung cancer cells, 72 h, read-out: Cytotoxic activity (IC50) PC-9
Description: as §1

MCF-7 cells = experiment: MTT assay, MCF-7 cells; type: cell-based; conditions: MCF7, human breast cancer cells, 72 h, read-out: Cytotoxic activity (IC50) MCF-7
Description: as §1

A549 cells = experiment: MTT assay, A549 cells; type: cell-based; conditions: human non-small cell lung cancer cells, read-out: Cytotoxic activity (IC50) A549
Description: as §1

Compound	IC50 at 72 h (MTT assay, HL-7702 cells) [µM]	IC50 (PC-3 cells) [µM]	IC50 (PC-9 cells) [µM]	IC50 (MCF-7 cells) [µM]	IC50 (A549 cells; Homo sapiens, A549, 72 h) [µM]	melting point [°C]	IC50 (A549 cells; 72 h) [µM]
O=c1c2c3c(sc2nc(-c2cccc(Cl)c2)n1CCc1ccc(O)cc1)CCCC3 [Compound 9]	> 100	> 100	> 100	30.7 ± 0.29	19.6 ± 0.33	238 to 240	
O=c1c2c3c(sc2nc(-c2cccs2)n1Cc1ccccc1)CCCC3 [Compound 5]	> 100	> 100	81 ± 3.94	97.5 ± 0.13	> 100	185 to 187	
Cc1sc2nc(-c3ccccc3)n(CCc3ccc(O)cc3)c(=O)c2c1C [Compound 22]	> 100	> 100	> 100	21.9 ± 0.82	> 100	251 to 253	
Cc1ccc(-c2nc3sc4c(c3c(=O)n2Cc2ccccc2)CCCCC4)o1 [Compound 18]	> 100	92 ± 2.34	58.28 ± 0.18	96.36 ± 0.72	63.2 ± 0.03		
O=c1c2c3c(sc2nc(-c2ccc(F)cc2)n1Cc1ccccc1)CCCCC3 [Compound 17]	> 100	> 100	> 100	> 100	> 100	146 to 148	
O=c1c2c3c(sc2nc(-c2ccc(C(F)(F)F)c(C(F)(F)F)c2)n1Cc1ccccc1)CCCC3 [Compound 4]	> 100	> 100	> 100	24.7 ± 2.04	58.2 ± 0.65	161 to 163	
O=c1c2c3c(sc2nc(-c2ccc(Cl)cc2)n1Cc1ccccc1)CCCC3 [Compound 1]	> 100	> 100	> 100	> 100	> 100		
Cc1cc(-c2nc3sc4c(c3c(=O)n2CCc2ccc(O)cc2)CCCCC4)sc1C [Compound 14]	68.64 ± 0.26	84.68 ± 0.48	86.33 ± 0.22	46.1 ± 0.48	49.8 ± 0.68	186 to 188	
O=c1c2c3c(sc2nc(-c2cccc(Cl)c2)n1Cc1ccccc1)COCC3 [Compound 25]	> 100	94.2 ± 1.83	> 100	> 100	44 ± 0.71		
Cc1cc(-c2nc3sc4c(c3c(=O)n2Cc2ccccc2)CCCCC4)sc1C [Compound 13]	> 100	92.5 ± 1.89	> 100	75.94 ± 0.17	49.86 ± 0.3		
O=c1c2c3c(sc2nc(-c2ccccc2)n1Cc1ccccc1)CCCC3 [Compound 2]	> 100	> 100	> 100	> 100	> 100		
Cc1ccc(-c2nc3sc4c(c3c(=O)n2Cc2ccccc2)CCCC4)o1 [Compound 3]	55.17 ± 0.5	92.9 ± 2.29	86.1 ± 1.28	> 100	54.4 ± 1.83		
Cc1ccc(-c2nc3sc4c(c3c(=O)n2CCc2ccc(O)cc2)CCCC4)cc1 [Compound 10]	> 100	43.4 ± 2.73	49.7 ± 2.27	27.47 ± 0.02	< 10		8.51 ± 0.16
Cc1ccc(-c2nc3sc4c(c3c(=O)n2CCc2ccc(O)cc2)CCOC4)cc1 [Compound 24]	> 100	> 100	> 100	> 100	32.9 ± 1.84		
O=c1c2c3c(sc2nc(-c2cccs2)n1CCc1ccc(O)cc1)CCCC3 [Compound 12]	> 100	21.9 ± 1.76	54.2 ± 2.06	36.4 ± 1.41	11.7 ± 0.12		
CC[C@@]1(O)C(=O)OCc2c1cc1n(c2=O)Cc2cc3ccccc3nc2-1 [CAMPTOTHECIN, camptothecin, reference compound]	0.11 ± 0.03	0.85 ± 0.01	0.09 ± 0.01	0.26 ± 0.05	0.1 ± 0.02		
Cc1cc(-c2nc3sc4c(c3c(=O)n2CCc2ccc(O)cc2)CCCC4)sc1C [Compound 8]	> 100	87.75 ± 0.63	92.97 ± 0.52	> 100	50.92 ± 0.07		
Cc1sc2nc(-c3cccs3)n(Cc3ccccc3)c(=O)c2c1C [Compound 20]	> 100	> 100	> 100	> 100	80.1 ± 0.83	162 to 164	
Cc1cc(-c2nc3sc4c(c3c(=O)n2Cc2ccccc2)CCCC4)sc1C [Compound 6]	> 100	> 100	> 100	59.86 ± 0.34	17.4 ± 0.88		
O=c1c2c3c(sc2nc(-c2ccc(F)cc2)n1CCc1ccc(O)cc1)CCCC3 [Compound 7]	> 100	> 100	44.8 ± 4.47	10.4 ± 1.32	< 10		6.86 ± 0.98
Cc1sc2nc(-c3ccc(F)cc3)n(Cc3ccccc3)c(=O)c2c1C [Compound 21]	> 100	> 100	> 100	> 100	> 100		
O=c1c2c3c(sc2nc(-c2ccco2)n1Cc1ccccc1)CCCCC3 [Compound 11]	> 100	> 100	> 100	65.63 ± 0.26	51.42 ± 0.46	192 to 194	
O=c1c2c3c(sc2nc(-c2ccc(Cl)cc2)n1CCc1ccc(O)cc1)CCCCC3 [Compound 19]	19.16 ± 0.06	25.1 ± 0.37	26.7 ± 1.38	13.04 ± 0.11	< 10		6.26 ± 0.87
Cc1sc2nc(-c3ccc(Cl)cc3)n(CCc3ccc(O)cc3)c(=O)c2c1C [Compound 23]	> 100	> 100	> 100	70.64 ± 0.59	46.14 ± 0.17		
O=c1c2c3c(sc2nc(-c2ccc(Cl)cc2)n1Cc1ccccc1)CCCCC3 [Compound 16]	> 100	> 100	> 100	> 100	81 ± 1.04	170 to 172	
